#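 1) Cells in 96-well plates. 2) Compound, 48 h, 5 concentrations. 3) Linear interpolation between surrounding doses. 4) Unreached endpoint = highest concentration. GI50: concentration for 50% inhibition of growth.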 Active and inactive are the calls of the source. Rule as the data show it: active = GI50 up to about 1.1 µM and inactive = higher.
# Assays:
# Experiment in all cases: NCI tumour cell line growth inhibition, 48 h
# Hs-578T = system: Hs-578T
# IGROV-1 = system: IGROV-1
# RPMI-8226 = system: RPMI-8226
# NCI-H23 = system: NCI-H23
# TK-10 = system: TK-10
# SK-MEL-28 = system: SK-MEL-28
# NCI/ADR-RES = system: NCI/ADR-RES
# BT-549 = system: BT-549
# UO-31 = system: UO-31
# K562 = system: K562
# PC-3 = system: PC-3
# NCI-H522 = system: NCI-H522
# Malme-3M = system: Malme-3M
# NCI-H460 = system: NCI-H460
# SNB-19 = system: SNB-19
# SR = system: SR
# EKVX = system: EKVX
# OVCAR-8 = system: OVCAR-8
# HCC 2998 = system: HCC 2998
# MDA-MB-231 = system: MDA-MB-231
# CAKI-1 = system: CAKI-1
# LOX IMVI = system: LOX IMVI
# T47D = system: T47D
# MDA-MB-435 = system: MDA-MB-435
# HOP-62 = system: HOP-62
# A549 = system: A549
# UACC-257 = system: UACC-257
# ACHN = system: ACHN
# MDA-N = system: MDA-N
# SF-295 = system: SF-295
# OVCAR-5 = system: OVCAR-5
# SK-MEL-2 = system: SK-MEL-2
# SK-OV-3 = system: SK-OV-3
# MCF7 = system: MCF7
# SF-539 = system: SF-539
# A498 = system: A498
# SK-MEL-5 = system: SK-MEL-5
# HL-60 = system: HL-60
# UACC-62 = system: UACC-62
# OVCAR-3 = system: OVCAR-3
# 786-0 = system: 786-0
# KM12 = system: KM12
# SW-620 = system: SW-620
# RXF 393 = system: RXF 393
# SF-268 = system: SF-268
# HCT-116 = system: HCT-116
# DU-145 = system: DU-145
# MOLT-4 = system: MOLT-4
# CCRF-CEM = system: CCRF-CEM
# SN12C = system: SN12C
# U-251 = system: U-251
# M14 = system: M14
# COLO 205 = system: COLO 205
# HCT-15 = system: HCT-15
# OVCAR-4 = system: OVCAR-4
# HT-29 = system: HT-29
# NCI-H226 = system: NCI-H226
smiles,measurement,setting,value
COC(=O)c1c(C)[n+]([O-])c2cc(Cl)c(Cl)cc2[n+]1[O-],GI50,Hs-578T,21.9 µM (inactive)
same,GI50,IGROV-1,4.39 µM (inactive)
same,GI50,RPMI-8226,4.17 µM (inactive)
same,GI50,NCI-H23,30.1 µM (inactive)
same,GI50,TK-10,11.3 µM (inactive)
same,GI50,SK-MEL-28,27.4 µM (inactive)
same,GI50,NCI/ADR-RES,13.9 µM (inactive)
same,GI50,BT-549,22.6 µM (inactive)
same,GI50,UO-31,15.8 µM (inactive)
same,GI50,K562,32.2 µM (inactive)
same,GI50,PC-3,22.4 µM (inactive)
same,GI50,NCI-H522,10.1 µM (inactive)
same,GI50,Malme-3M,8.45 µM (inactive)
same,GI50,NCI-H460,5.38 µM (inactive)
same,GI50,SNB-19,27.4 µM (inactive)
same,GI50,SR,6.17 µM (inactive)
same,GI50,EKVX,19.5 µM (inactive)
same,GI50,OVCAR-8,16.6 µM (inactive)
same,GI50,HCC 2998,16.1 µM (inactive)
same,GI50,MDA-MB-231,19.4 µM (inactive)
same,GI50,CAKI-1,20.7 µM (inactive)
same,GI50,LOX IMVI,8.65 µM (inactive)
same,GI50,T47D,15.8 µM (inactive)
same,GI50,MDA-MB-435,18.6 µM (inactive)
same,GI50,HOP-62,26 µM (inactive)
same,GI50,A549,8.07 µM (inactive)
same,GI50,UACC-257,17.1 µM (inactive)
same,GI50,ACHN,15.8 µM (inactive)
same,GI50,MDA-N,19.5 µM (inactive)
same,GI50,SF-295,19.6 µM (inactive)
same,GI50,OVCAR-5,30.9 µM (inactive)
same,GI50,SK-MEL-2,19.4 µM (inactive)
same,GI50,SK-OV-3,12.9 µM (inactive)
same,GI50,MCF7,14.5 µM (inactive)
same,GI50,SF-539,18.9 µM (inactive)
same,GI50,A498,10.2 µM (inactive)
same,GI50,SK-MEL-5,8.71 µM (inactive)
same,GI50,HL-60,17.7 µM (inactive)
same,GI50,UACC-62,15 µM (inactive)
same,GI50,OVCAR-3,16.6 µM (inactive)
same,GI50,786-0,27.2 µM (inactive)
same,GI50,KM12,11.2 µM (inactive)
same,GI50,SW-620,18.3 µM (inactive)
same,GI50,RXF 393,32.9 µM (inactive)
same,GI50,SF-268,23.4 µM (inactive)
same,GI50,HCT-116,15.5 µM (inactive)
same,GI50,DU-145,12.5 µM (inactive)
same,GI50,MOLT-4,12.6 µM (inactive)
same,GI50,CCRF-CEM,10.4 µM (inactive)
same,GI50,SN12C,18.2 µM (inactive)
same,GI50,U-251,16.5 µM (inactive)
same,GI50,M14,24.5 µM (inactive)
same,GI50,COLO 205,12.2 µM (inactive)
same,GI50,HCT-15,9.59 µM
same,GI50,OVCAR-4,19 µM (inactive)
same,GI50,HT-29,18.7 µM (inactive)
Cc1cc(S(=O)(=O)n2ccnc2O)c(SCCCN(C)C)cc1Cl,GI50,Hs-578T,> 100 µM (inactive)
same,GI50,IGROV-1,> 100 µM (inactive)
same,GI50,NCI-H23,> 100 µM (inactive)
same,GI50,TK-10,> 100 µM (inactive)
same,GI50,SK-MEL-28,> 100 µM (inactive)
same,GI50,NCI/ADR-RES,> 100 µM (inactive)
same,GI50,BT-549,> 100 µM (inactive)
same,GI50,NCI-H226,> 100 µM (inactive)
same,GI50,UO-31,> 100 µM (inactive)
same,GI50,K562,> 100 µM (inactive)
same,GI50,PC-3,> 100 µM (inactive)
same,GI50,NCI-H522,> 100 µM (inactive)
same,GI50,Malme-3M,> 100 µM (inactive)
same,GI50,NCI-H460,> 100 µM (inactive)
same,GI50,SNB-19,> 100 µM (inactive)
same,GI50,SR,> 100 µM (inactive)
same,GI50,EKVX,> 100 µM (inactive)
same,GI50,OVCAR-8,> 100 µM (inactive)
same,GI50,HCC 2998,> 100 µM (inactive)
same,GI50,MDA-MB-231,> 100 µM (inactive)
same,GI50,CAKI-1,> 100 µM (inactive)
same,GI50,LOX IMVI,> 100 µM (inactive)
same,GI50,T47D,> 100 µM (inactive)
same,GI50,MDA-MB-435,> 100 µM (inactive)
same,GI50,HOP-62,> 100 µM (inactive)
same,GI50,A549,> 100 µM (inactive)
same,GI50,UACC-257,> 100 µM (inactive)
same,GI50,ACHN,> 100 µM (inactive)
same,GI50,MDA-N,> 100 µM (inactive)
same,GI50,SF-295,> 100 µM (inactive)
same,GI50,OVCAR-5,> 100 µM (inactive)
same,GI50,SK-MEL-2,> 100 µM (inactive)
same,GI50,SK-OV-3,> 100 µM (inactive)
same,GI50,MCF7,> 100 µM (inactive)
same,GI50,SF-539,> 100 µM (inactive)
same,GI50,A498,> 100 µM (inactive)
same,GI50,SK-MEL-5,> 100 µM (inactive)
same,GI50,UACC-62,> 100 µM (inactive)
same,GI50,OVCAR-3,> 100 µM (inactive)
same,GI50,786-0,> 100 µM (inactive)
same,GI50,KM12,> 100 µM (inactive)
same,GI50,SW-620,> 100 µM (inactive)
same,GI50,RXF 393,> 100 µM (inactive)
same,GI50,SF-268,> 100 µM (inactive)
same,GI50,HCT-116,> 100 µM (inactive)
same,GI50,DU-145,> 100 µM (inactive)
same,GI50,MOLT-4,> 100 µM (inactive)
same,GI50,CCRF-CEM,> 100 µM (inactive)
same,GI50,SN12C,> 100 µM (inactive)
same,GI50,U-251,> 100 µM (inactive)
same,GI50,M14,> 100 µM (inactive)
same,GI50,COLO 205,> 100 µM (inactive)
same,GI50,HCT-15,> 100 µM
same,GI50,OVCAR-4,> 100 µM (inactive)
same,GI50,HT-29,> 100 µM (inactive)

# Reference: ChEMBL document CHEMBL1201862, “PubChem BioAssay data set” (2004)
